Assay results as given in patent publication US11400132B2 (NOVALIQ GMBH, priority 2016, dated 2022).

Assay: Water solubility / residual water in 1-perfluorobutyl-pentane
Type: physicochemical
Details: based on weight of 1-perfluorobutylpentane
From the text: The predominant contribution to residual water content in the composition can be attributed to water sorption or association with ciclosporin (e.g. not limited to, but for example derived from manufacturing process, or its transport and storage).
The 1-perfluorobutyl-pentane as featured in any of the compositions or methods described herein is preferably essentially free of water. In such case, the presence of residual water in the composition according to the invention is derived from the ciclosporin or optionally, if present, one or more excipients that is functionally not a co-solvent.

CCCCCC(F)(F)C(F)(F)C(F)(F)C(F)(F)F [F4H5, 1-perfluorobutyl-pentane]
water solubility in 1-perfluorobutylpentane: less than 1.20×10^−5 wt %
